Columns and labels:
BT-549 = assay: NCI in vitro DTP human cell line screen, BT-549; format: cell-based; settings: Breast Cancer, 1.00E−5 Molar
Procedure: (§1) Then, a cell toxicity assay of the cancer lines made by National Cancer Institute will be discussed as follows. The cell toxicity assay is performed by choosing ten compounds (existing certification numbers) from the 59 compounds disclosed in the present invention first.

OVCAR-3 = assay: NCI in vitro DTP human cell line screen, OVCAR-3; format: cell-based; settings: Ovarian Cancer, 1.00E−5 Molar
Procedure: as §1

NCI-H522 = assay: NCI in vitro DTP human cell line screen, NCI-H522; format: cell-based; settings: Non-Small Cell Lung Cancer, 1.00E−5 Molar
Procedure: as §1

MOLT-4 = assay: NCI in vitro DTP human cell line screen, MOLT-4; format: cell-based; settings: Leukemia, 1.00E−5 Molar
Procedure: as §1

A3 cell lines = assay: MTT assay, A3 cell lines (lung cancer stem cell); format: cell-based
Description: Please to FIG. 4B, various cell viabilities of the A3 cell lines can be obtained through the MTT assay and illustrated in FIG. 4B while the compounds No. 1˜30 are used to treat A3 cell lines, wherein A3 cell lines are lung cancer stem cell.

RPMI-8226 = assay: NCI in vitro DTP human cell line screen, RPMI-8226; format: cell-based; settings: Leukemia, 1.00E−5 Molar
Procedure: as §1

SN12C = assay: NCI in vitro DTP human cell line screen, SN12C; format: cell-based; settings: Renal Cancer, 1.00E−5 Molar
Procedure: as §1

OVCAR-4 = assay: NCI in vitro DTP human cell line screen, OVCAR-4; format: cell-based; settings: Ovarian Cancer, 1.00E−5 Molar
Procedure: as §1

NCI-H23 = assay: NCI in vitro DTP human cell line screen, NCI-H23; format: cell-based; settings: Non-Small Cell Lung Cancer, 1.00E−5 Molar
Procedure: as §1

NCI-H460 = assay: NCI in vitro DTP human cell line screen, NCI-H460; format: cell-based; settings: Non-Small Cell Lung Cancer, 1.00E−5 Molar
Procedure: as §1

DU145 = assay: NCI in vitro DTP human cell line screen, DU145; format: cell-based; settings: Prostate Cancer, 1.00E−5 Molar
Procedure: as §1

LOX IMVI = assay: NCI in vitro DTP human cell line screen, LOX IMVI; format: cell-based; settings: Melanoma, 1.00E−5 Molar
Procedure: as §1

HCT-15 = assay: NCI in vitro DTP human cell line screen, HCT-15; format: cell-based; settings: Colon Cancer, 1.00E−5 Molar
Procedure: as §1

PC-3 = assay: NCI in vitro DTP human cell line screen, PC-3; format: cell-based; settings: Prostate Cancer, 1.00E−5 Molar
Procedure: as §1

SF-539 = assay: NCI in vitro DTP human cell line screen, SF-539; format: cell-based; settings: CNS Cancer, 1.00E−5 Molar
Procedure: as §1

NCI-H322M = assay: NCI in vitro DTP human cell line screen, NCI-H322M; format: cell-based; settings: Non-Small Cell Lung Cancer, 1.00E−5 Molar
Procedure: as §1

MCF7 = assay: NCI in vitro DTP human cell line screen, MCF7; format: cell-based; settings: Breast Cancer, 1.00E−5 Molar
Procedure: as §1

A control cell lines = assay: MTT assay, A control cell lines (lung cancer cell); format: cell-based
Description: Please refer to Table 1 and FIGS. 4A-4C. According to a MTT assay (Table 1), various cell viabilities of the A control cell lines can be obtained and illustrated in FIG. 4A while the compounds No. 2˜30 are used to treat A control cell lines, wherein A control cell lines are lung cancer cell.

HS 578-T = assay: NCI in vitro DTP human cell line screen, HS 578-T; format: cell-based; settings: Breast Cancer, 1.00E−5 Molar
Procedure: as §1

M14 = assay: NCI in vitro DTP human cell line screen, M14; format: cell-based; settings: Melanoma, 1.00E−5 Molar
Procedure: as §1

SW-620 = assay: NCI in vitro DTP human cell line screen, SW-620; format: cell-based; settings: Colon Cancer, 1.00E−5 Molar
Procedure: as §1

RXF 393 = assay: NCI in vitro DTP human cell line screen, RXF 393; format: cell-based; settings: Renal Cancer, 1.00E−5 Molar
Procedure: as §1

OVCAR-8 = assay: NCI in vitro DTP human cell line screen, OVCAR-8; format: cell-based; settings: Ovarian Cancer, 1.00E−5 Molar
Procedure: as §1

TK-10 = assay: NCI in vitro DTP human cell line screen, TK-10; format: cell-based; settings: Renal Cancer, 1.00E−5 Molar
Procedure: as §1

HL-60(TB) = assay: NCI in vitro DTP human cell line screen, HL-60(TB); format: cell-based; settings: Leukemia, 1.00E−5 Molar
Procedure: as §1

UACC-257 = assay: NCI in vitro DTP human cell line screen, UACC-257; format: cell-based; settings: Melanoma, 1.00E−5 Molar
Procedure: as §1

SNB-19 = assay: NCI in vitro DTP human cell line screen, SNB-19; format: cell-based; settings: CNS Cancer, 1.00E−5 Molar
Procedure: as §1

SK-OV-3 = assay: NCI in vitro DTP human cell line screen, SK-OV-3; format: cell-based; settings: Ovarian Cancer, 1.00E−5 Molar
Procedure: as §1

SF-268 = assay: NCI in vitro DTP human cell line screen, SF-268; format: cell-based; settings: CNS Cancer, 1.00E−5 Molar
Procedure: as §1

SNB-75 = assay: NCI in vitro DTP human cell line screen, SNB-75; format: cell-based; settings: CNS Cancer, 1.00E−5 Molar
Procedure: as §1

HCT-116 = assay: NCI in vitro DTP human cell line screen, HCT-116; format: cell-based; settings: Colon Cancer, 1.00E−5 Molar
Procedure: as §1

MDA-MB-435 = assay: NCI in vitro DTP human cell line screen, MDA-MB-435; format: cell-based; settings: Melanoma, 1.00E−5 Molar
Procedure: as §1

MDA-MB-468 = assay: NCI in vitro DTP human cell line screen, MDA-MB-468; format: cell-based; settings: Breast Cancer, 1.00E−5 Molar
Procedure: as §1

SF-295 = assay: NCI in vitro DTP human cell line screen, SF-295; format: cell-based; settings: CNS Cancer, 1.00E−5 Molar
Procedure: as §1

60 cancer lines = assay: NCI cell toxicity assay of 60 cancer lines, whole panel summary; format: cell-based, human; settings: 1.00E−5 Molar
Procedure: as §1

SR = assay: NCI in vitro DTP human cell line screen, SR; format: cell-based; settings: Leukemia, 1.00E−5 Molar
Procedure: as §1

HCC-2998 = assay: NCI in vitro DTP human cell line screen, HCC-2998; format: cell-based; settings: Colon Cancer, 1.00E−5 Molar
Procedure: as §1

SK-MEL-2 = assay: NCI in vitro DTP human cell line screen, SK-MEL-2; format: cell-based; settings: Melanoma, 1.00E−5 Molar
Procedure: as §1

HT29 = assay: NCI in vitro DTP human cell line screen, HT29; format: cell-based; settings: Colon Cancer, 1.00E−5 Molar
Procedure: as §1

CCRF-CEM = assay: NCI in vitro DTP human cell line screen, CCRF-CEM; format: cell-based; settings: Leukemia, 1.00E−5 Molar
Procedure: as §1

UO-31 = assay: NCI in vitro DTP human cell line screen, UO-31; format: cell-based; settings: Renal Cancer, 1.00E−5 Molar
Procedure: as §1

NCI-H226 = assay: NCI in vitro DTP human cell line screen, NCI-H226; format: cell-based; settings: Non-Small Cell Lung Cancer, 1.00E−5 Molar
Procedure: as §1

[1] = MTT assay, HEL299 fibroblast; format: cell-based; settings: human
Description: Please refer to FIG. 4C, various cell viabilities of the HEL299 cell lines can be obtained through the MTT assay while the compounds No. 1˜30 are used to treat HEL299 cell lines, wherein HEL299 cell lines are fibroblast.

K562 = assay: NCI in vitro DTP human cell line screen, K562; format: cell-based; settings: Leukemia, 1.00E−5 Molar
Procedure: as §1

NCI/ADR-RES = assay: NCI in vitro DTP human cell line screen, NCI/ADR-RES; format: cell-based; settings: Ovarian Cancer, 1.00E−5 Molar
Procedure: as §1

KM12 = assay: NCI in vitro DTP human cell line screen, KM12; format: cell-based; settings: Colon Cancer, 1.00E−5 Molar
Procedure: as §1

ACHN = assay: NCI in vitro DTP human cell line screen, ACHN; format: cell-based; settings: Renal Cancer, 1.00E−5 Molar
Procedure: as §1

MALME-3M = assay: NCI in vitro DTP human cell line screen, MALME-3M; format: cell-based; settings: Melanoma, 1.00E−5 Molar
Procedure: as §1

786-0 = assay: NCI in vitro DTP human cell line screen, 786-0; format: cell-based; settings: Renal Cancer, 1.00E−5 Molar
Procedure: as §1

MDA-MB-231/ATCC = assay: NCI in vitro DTP human cell line screen, MDA-MB-231/ATCC; format: cell-based; settings: Breast Cancer, 1.00E−5 Molar
Procedure: as §1

HOP-92 = assay: NCI in vitro DTP human cell line screen, HOP-92; format: cell-based; settings: Non-Small Cell Lung Cancer, 1.00E−5 Molar
Procedure: as §1

OVCAR-5 = assay: NCI in vitro DTP human cell line screen, OVCAR-5; format: cell-based; settings: Ovarian Cancer, 1.00E−5 Molar
Procedure: as §1

COLO 205 = assay: NCI in vitro DTP human cell line screen, COLO 205; format: cell-based; settings: Colon Cancer, 1.00E−5 Molar
Procedure: as §1

SK-MEL-28 = assay: NCI in vitro DTP human cell line screen, SK-MEL-28; format: cell-based; settings: Melanoma, 1.00E−5 Molar
Procedure: as §1

U251 = assay: NCI in vitro DTP human cell line screen, U251; format: cell-based; settings: CNS Cancer, 1.00E−5 Molar
Procedure: as §1

IGROV1 = assay: NCI in vitro DTP human cell line screen, IGROV1; format: cell-based; settings: Ovarian Cancer, 1.00E−5 Molar
Procedure: as §1

SK-MEL-5 = assay: NCI in vitro DTP human cell line screen, SK-MEL-5; format: cell-based; settings: Melanoma, 1.00E−5 Molar
Procedure: as §1

CAKI-1 = assay: NCI in vitro DTP human cell line screen, CAKI-1; format: cell-based; settings: Renal Cancer, 1.00E−5 Molar
Procedure: as §1

UACC-62 = assay: NCI in vitro DTP human cell line screen, UACC-62; format: cell-based; settings: Melanoma, 1.00E−5 Molar
Procedure: as §1

EKVX = assay: NCI in vitro DTP human cell line screen, EKVX; format: cell-based; settings: Non-Small Cell Lung Cancer, 1.00E−5 Molar
Procedure: as §1

T-47D = assay: NCI in vitro DTP human cell line screen, T-47D; format: cell-based; settings: Breast Cancer, 1.00E−5 Molar
Procedure: as §1

## O=c1c2ccccc2sc2c(Cl)c(Sc3ccc(Cl)cc3)ccc12 [No. 29, 4-Chloro-3-(4-chlorophenylthio)-9H-thioxanthen-9-one]
BT-549
  Growth Percent: 87.92%
OVCAR-3
  Growth Percent: 90.37%
NCI-H522
  Growth Percent: 80.48%
MOLT-4
  Growth Percent: 94.77%
A3 cell lines
  cell viabilities of A3 cell lines (MTT assay): 70.3 ± 5.31%
RPMI-8226
  Growth Percent: 88.56%
SN12C
  Growth Percent: 70.19%
OVCAR-4
  Growth Percent: 31.58%
NCI-H23
  Growth Percent: 83.03%
NCI-H460
  Growth Percent: 40.25%
DU145
  Growth Percent: 108.68%
LOX IMVI
  Growth Percent: 63.24%
HCT-15
  Growth Percent: 85.15%
PC-3
  Growth Percent: 77.10%
SF-539
  Growth Percent: 86.15%
NCI-H322M
  Growth Percent: 56.53%
MCF7
  Growth Percent: 83.90%
A control cell lines
  cell viabilities of A control cell lines (MTT assay): 70.1 ± 2.68%
HS 578-T
  Growth Percent: 102.79%
M14
  Growth Percent: 89.62%
SW-620
  Growth Percent: 75.00%
RXF 393
  Growth Percent: 97.81%
OVCAR-8
  Growth Percent: 64.49%
TK-10
  Growth Percent: 88.86%
HL-60(TB)
  Growth Percent: 105.61%
UACC-257
  Growth Percent: 99.23%
SNB-19
  Growth Percent: 74.97%
SK-OV-3
  Growth Percent: 73.85%
SF-268
  Growth Percent: 81.14%
SNB-75
  Growth Percent: 76.16%
HCT-116
  Growth Percent: 54.33%
MDA-MB-435
  Growth Percent: 85.11%
MDA-MB-468
  Growth Percent: 87.73%
SF-295
  Growth Percent: 57.86%
60 cancer lines; mean over all cell lines
  Growth Percent, Mean: 78.44%
60 cancer lines; summary of Table 3
  cancer types with the better inhibition effect (in words): better inhibition effect on Leukemia, non-small cell lung cancer, colorectal cancer, central nervous system cancer, ovarian cancer and kidney cancer
SR
  Growth Percent: 51.19%
HCC-2998
  Growth Percent: 98.92%
SK-MEL-2
  Growth Percent: 105.36%
HT29
  Growth Percent: 86.36%
CCRF-CEM
  Growth Percent: 67.42%
UO-31
  Growth Percent: 69.61%
NCI-H226
  Growth Percent: 81.05%
[1]
  viability: 74.5 ± 9.39%
K562
  Growth Percent: 96.64%
NCI/ADR-RES
  Growth Percent: 81.27%
KM12
  Growth Percent: 73.79%
ACHN
  Growth Percent: 39.55%
MALME-3M
  Growth Percent: 76.90%
786-0
  Growth Percent: 84.66%
MDA-MB-231/ATCC
  Growth Percent: 77.55%
HOP-92
  Growth Percent: 49.52%
OVCAR-5
  Growth Percent: 107.36%
COLO 205
  Growth Percent: 87.02%
SK-MEL-28
  Growth Percent: 114.93%
U251
  Growth Percent: 47.77%
IGROV1
  Growth Percent: 53.39%
SK-MEL-5
  Growth Percent: 88.35%
CAKI-1
  Growth Percent: 48.21%
UACC-62
  Growth Percent: 82.23%
EKVX
  Growth Percent: 73.14%
T-47D
  Growth Percent: 85.63%

From patent US8410161B2, “Thioxanthone ring system derivatives” (National Defense Medical Center, priority 2010, dated 2013)
